Where two headings read alike, the source gives them in different places.
Legend:
[1] = Human coffee intervention study: plasma concentrations after roasted coffee brew by UPLC-MS/MS; type: in vivo; conditions: for plasma level at baseline / concentration at 0 h: 0 h; for plasma level at baseline: before coffee intake; for samples above the LLOQ / study participants in whom the conjugate appeared within 10 h after coffee: n = 10; for concentration at 1 h / concentration at 10 h / concentration at 4 h / concentration at 0 h: human, plasma, 200 mL; for concentration at 1 h / concentration at 10 h / Cmax / concentration at 4 h / concentration at 0 h: oral; for Cmax / time of estimated cmax: human plasma after coffee brew (200 mL); for Cmax: n = 10, mean ± SD, read-out: estimated cmax in plasma; for time of estimated cmax: sampling only at 0, 1, 4, 10 h
Protocol: The study included ten volunteers (5 females, 5 males) (age: 28.3 ± 2.3 years; BMI: 21.89 ± 2.22 kg/m^2). The intervention study took place from November 5, 2021, to February 17, 2022, in the core facility human studies of the ZIEL Institute for Food and Health of the Technical University of Munich. The study was performed in agreement with the Declaration of Helsinki, and all participants gave written informed consent. The study was approved by the Ethics Committee of the Technical University of Munich (5798/13 S-SR) and registered in the German Register of Clinical Studies (DRKS00005083).
The study participants underwent a dietary protocol that excluded all forms of coffee consumption. Additionally, chocolate, black/green/white, mate tea, cola, energy drinks, and beauty products containing caffeine (e.g., shampoos, creams) were prohibited 1 week before the test day. Furthermore, the study participants received a standardized meal the evening before the test day. The meal was composed of pasta, margarine, and salt, and the amount of energy was calculated based on the participant’s basal energy demand. On the morning of the test day, the participants were in a fastened state and received water (control samples) or coffee brew (coffee intervention) as breakfast. Blood was sampled before coffee intake (0 h) and at defined time points (1, 4, and 10 h) after coffee intake. 6 h after the coffee intake, the participants received lunch, the same standardized meal as the previous dinner. The administered coffee was prepared from a coffee capsule (Nespresso, ROMA) with 100 mL water. The administered volume of the coffee brew was 200 mL. Based on the coffee powder per capsule ([…]), the concentrations of 2 (2.8 μmol/g) and 3 (1.1 μmol/g), respectively,[10] and an estimated extraction rate of 100%, the total ingested amounts were 33.6 μmol (2) and 13.2 μmol (3).
In an Eppendorf tube (1.5 mL), aliquots (50 μL each) of the calibration standard, sample, or QC, respectively, were mixed with the IS solution (1000 nM in ethanol, 50 μL) and acetonitrile/ethanol (9 + 1, v + v, 50 μL) was added. After vortexing, suspensions were cleared by centrifugation (12,000 rpm, 4 °C, 10 min), and the supernatant (∼100 μL) was transferred to an HPLC vial with 200 μL insert for analysis (5 μL injection).
The UPLC–MS/MS system consisted of a Shimadzu Nexera X2 UPLC system (Shimadzu, Duisburg, Germany) hyphenated to a QTrap 5500 MS/MS system (Sciex, Darmstadt, Germany) operating in negative electrospray (ESI^–) mode with the following ion source parameters: ion spray voltage: −4500 V; source temperature: 500 °C; nebulizer gas: 55 psi; heater gas: 65 psi; and curtain gas: 35 psi. The MS/MS parameters, including the collision cell entrance potential (CEP), declustering potential (DP), collision energy (CE), and cell exit potential (CXP), were tuned for each compound and mass transition and are summarized in Supporting Table S3. The dwell time for each compound was 30 ms, and the total cycle time was 0.75 s. Chromatographic separation was achieved on a C18 column (Kinetex C18, 100 mm × 2.1 mm, 1.7 μm, Phenomenex, Aschaffenburg, Germany) at a flow rate of 500 μL/min flow rate. Eluent A was 0.1% formic acid in water, and eluent B was 0.1% formic acid in acetonitrile. B was kept at 3% (1 min), increased to 25% (in 3 min), 90% (in 2 min, 1 min isocratic), and 3% (0.5 min, 2.5 min isocratic). The total time of the analysis was 10 min. The column effluent was introduced from the waste to the MS/MS system between 3 and 7 min.
We applied this method to human plasma samples from a coffee intervention study to investigate the appearance of coffee compounds 1–3 and metabolites M1–M3. Ten participants underwent a washout period (7 days) and then consumed one dose of […]. Blood samples were taken at baseline (0 h) and 1, 4, and 10 h after the intervention. […]

[2] = design: method as in PMID 36442242; conditions: coffee drinkers' urine, four of six samples, qualitative; cited from earlier work
[3] = both sexes, 1 h after coffee brew (200 mL), human plasma, values above LLOQ, read-out: plasma concentration, mean ± SD
[4] = both sexes, 10 h after coffee brew (200 mL), human plasma, values above LLOQ, read-out: plasma concentration, mean ± SD
[5] = participant ayia, 1 h after coffee, read-out: plasma concentration, individual
[6] = participant ayia, 10 h after coffee, read-out: plasma concentration, individual
[7] = participant cbdu, 1 h after coffee, b = below LLOQ, read-out: plasma concentration, individual
[8] = participant cbdu, 10 h after coffee, read-out: plasma concentration, individual
[9] = participant eogo, 10 h after coffee, b = below LLOQ, read-out: plasma concentration, individual
[10] = participant ggot, 1 h after coffee, read-out: plasma concentration, individual
[11] = participant ggot, 10 h after coffee, b = below LLOQ, read-out: plasma concentration, individual
[12] = participant imhz, 10 h after coffee, read-out: plasma concentration, individual
[13] = participant mgjj, 10 h after coffee, read-out: plasma concentration, individual
[14] = participant wbqj, 1 h after coffee, b = below LLOQ, read-out: plasma concentration, individual
[15] = participant wbqj, 10 h after coffee, b = below LLOQ, read-out: plasma concentration, individual
[16] = participant wbvs, 10 h after coffee, read-out: plasma concentration, individual
[17] = both sexes, 4 h after coffee brew (200 mL), human plasma, values above LLOQ, read-out: plasma concentration, mean ± SD
[18] = participant eogo, 1 h after coffee, b = below LLOQ, read-out: plasma concentration, individual
[19] = participant ggot, 4 h after coffee, b = below LLOQ, read-out: plasma concentration, individual
[20] = participant rrmk, 4 h after coffee, b = below LLOQ, read-out: plasma concentration, individual
[21] = participant rrmk, 10 h after coffee, read-out: plasma concentration, individual
[22] = participant wbqj, 4 h after coffee, b = below LLOQ, read-out: plasma concentration, individual
[23] = participant wbvs, 1 h after coffee, read-out: plasma concentration, individual
[24] = participant wbvs, 4 h after coffee, read-out: plasma concentration, individual
[25] = participant xrwz, 10 h after coffee, b = below LLOQ, read-out: plasma concentration, individual

Structure (SMILES)	plasma level at baseline ([1]; human plasma)	samples above the LLOQ ([1]; 10 h after coffee) [%]	concentration at 1 h [1, 3] [nM]	concentration at 10 h [1, 4] [nM]	Cmax ([1]; both sexes) [nM]	time of estimated cmax [1] [h]	study participants in whom the conjugate appeared within 10 h after coffee ([1]; human plasma) [%]	concentration at 1 h [1, 5] [nM]	concentration at 10 h [1, 6] [nM]	concentration at 1 h [1, 7] [nM]	concentration at 10 h [1, 8] [nM]	concentration at 10 h [1, 9] [nM]	concentration at 1 h [1, 10] [nM]	concentration at 10 h [1, 11] [nM]	concentration at 10 h [1, 12] [nM]	concentration at 10 h [1, 13] [nM]	concentration at 1 h [1, 14] [nM]	concentration at 10 h [1, 15] [nM]	concentration at 10 h [1, 16] [nM]	urine samples in which detected [2] [%]	also measured
CC1C(=O)C23CCC4C(C(=O)OC5OC(C(=O)O)C(O)C(O)C5O)CC(O)CC4(C)C2CCC1C3 [M2, 2β-hydroxy-15-oxoatractylan-4α-carboxy-19-O-β-D-glucuronide]	below the LLOQ	80	0.63 ± 0.14	2.5 ± 1.9	2.5 ± 1.9	10	80	0.5	5.6	0.1	0.9	3.1	0.7	0.6	1.1	0.8	0.01	2.8	5.1	67	plasma concentration, mean ± SD ([1]; 1 h after coffee brew (200 mL), human plasma, values above LLOQ): 0.6 ± 0.1 nM; concentration at 4 h ([1]; participant ayia, 4 h after coffee, b = below LLOQ, read-out: plasma concentration, individual): 0.1 nM; concentration at 0 h ([1]; participant rrmk, b = below LLOQ, read-out: plasma concentration, individual): 0.1 nM
CC1C(=O)C23CCC4C(C(=O)O)CC(OC5OC(C(=O)O)C(O)C(O)C5O)CC4(C)C2CCC1C3 [M3, 2β-hydroxy-15-oxoatractylan-4α-carboxylic acid-2-O-β-D-glucuronide]	below the LLOQ	90	1.7	55 ± 57.7	55 ± 57.7	10	90				11.6	40.8		180	9.3	24.3		64.1	111	67	plasma concentration in samples from two individuals ([1]; 10 h after coffee, comparatively high individual values): 180.0 nM; concentration at 4 h [1, 17]: 1.3 ± 1.1 nM; concentration at 10 h ([1]; 10 h after coffee, comparatively high individual values, read-out: plasma concentration in samples from two individuals): 111 nM; concentration at 0 h ([1]; participant eogo, b = below LLOQ, read-out: plasma concentration, individual): 0.4 nM; concentration at 1 h [1, 18]: 0.3 nM; concentration at 4 h ([1]; participant eogo, 4 h after coffee, b = below LLOQ, read-out: plasma concentration, individual): 0.1 nM; concentration at 4 h [1, 19]: 2.9 nM; concentration at 4 h [1, 20]: 0.7 nM; concentration at 10 h [1, 21]: 50.6 nM; concentration at 4 h [1, 22]: 0.9 nM; concentration at 0 h ([1]; participant wbvs, b = below LLOQ, read-out: plasma concentration, individual): 0.9 nM; concentration at 1 h [1, 23]: 1.7 nM; concentration at 4 h [1, 24]: 1.9 nM; concentration at 10 h [1, 25]: 4.1 nM
C=C1[C@@H]2CC[C@@H]3[C@@](CCC4[C@H](C(=O)O)C[C@@H](O)C[C@]43C)(C2)[C@@H]1O (some centres unmarked) [compound 1, atractyligenin]			41.9 ± 12.5	23.3 ± 10.5	41.9 ± 12.5	1		36.5	25.6	31.6	19	8	49.2	2.3	43.7	16.5	49.1	4.7	17		concentration at 4 h [1, 17]: 40.1 ± 22.9 nM; drop of plasma concentration until 10 h ([1]; from the level between 1 and 4 h to 10 h after coffee): ~45%; concentration at 1 h [1, 18]: 43.4 nM; concentration at 4 h [1, 19]: 13.8 nM; concentration at 1 h ([1]; participant imhz, 1 h after coffee, read-out: plasma concentration, individual): 70.5 nM; concentration at 4 h ([1]; participant imhz, 4 h after coffee, read-out: plasma concentration, individual): 19.6 nM; concentration at 1 h ([1]; participant mgjj, 1 h after coffee, read-out: plasma concentration, individual): 34.7 nM; concentration at 4 h ([1]; participant mgjj, 4 h after coffee, read-out: plasma concentration, individual): 17.7 nM; concentration at 1 h ([1]; participant rrmk, 1 h after coffee, read-out: plasma concentration, individual): 42.7 nM; concentration at 4 h [1, 20]: 68.1 nM; concentration at 10 h [1, 21]: 17.9 nM; concentration at 4 h [1, 22]: 59.7 nM; concentration at 1 h [1, 23]: 36.1 nM; concentration at 4 h [1, 24]: 35.2 nM; concentration at 1 h ([1]; participant xrwz, 1 h after coffee, read-out: plasma concentration, individual): 26 nM; concentration at 10 h [1, 25]: 10.4 nM; participants in whom plasma concentration increased between 4 and 10 h ([1]; individual plots, after first maximum at 1 h): 60%
CC1C(=O)C23CCC4C(C(=O)O)CC(O)CC4(C)C2CCC1C3 (stereo not drawn) [compound 5, 2β-hydroxy-15-oxoatractylan-4α-carboxylic acid]																					appearance in plasma after coffee ([1]; all samples 1, 4, 10 h after coffee brew (200 mL), human plasma): did not appear in the plasma
